# In patent US20120190580A1, “TREATMENT OF PATIENTS AFTER STENT IMPLANTATION OR BALLOON DILATATION AND DRUG ELUTING STENTS” (MAX-PLANCK-GESELLSCHAFT ZUR FORDERUNG DER WISSENSCHAFTEN …, priority 2009, published 2012):
# “Also recorded” adds a separate entry of the source.
# Legend:
# Type in all cases: in vivo, mouse
# [1] = test system: femoral arteries from KO mice; assay: Myograph: contractility of isolated femoral artery rings from mice chronically treated with captopril
# From the text: (§1) A 129S7AB2.2 genomic BAC clone (bMQ-446B20; Sanger) was used to generate the targeting vector. Recombination in SW102 cell was employed to replace the miR-143 to miR-145 genomic region by a galK cassette (45) that was amplified by the primers flanking premiR-143 to pre-miR-145 ([…] GCggcgcgcctcagcactgtcctgctcctt; […] ACggcgcgcctgttgacaattaatcatcggca). The genomic sequence was inserted via gap repair into a pKO targeting vector containing a DTA expression cassette and 450 bp homology arms for BAC recombination resulting in a vector containing 6.5 kb of sequence 5′ of miR-143 and 5.5 kb 3′ of miR-145 from genomic sequence […] to […]. The AscI restriction sites flanking the galK cassette were used to replace the galK by a floxed IRESIacZ-NeoR cassette. The vector was electroporated into MPI II ES cells (46) and recombinant clones were identified. Recombinant ES cells were injected into blastocysts and transferred to pseudopregnant mice. Chimeric animals were backcrossed to C57BL/6 mice. Heterozygous animals were used to obtain WT and KO littermates. ES cells and mice were genotyped using an EcoRV restriction digest and a 5′ outside probe amplified from genomic DNA using oligonucleotides ([…]; […]). […] The experiments were performed in accordance with German legislation on protection of animals and were approved by the local governmental animal care committee (Regierungspraesidium Darmstadt).
# Isolated segments of femoral and mesenteric arteries were examined in an isometric microvessel myograph as described previously (52). Mounted vessels were stimulated with 80 mM K+, 30 nM angiotensin II or increasing concentrations of phenylephrine (100 nM to 10 μM). The pCa-force relationships (13, 14) were obtained in permeabilized mouse femoral artery segments. In brief, arteries were permeabilized for 30 minutes using 0.5% Triton X-100 in relaxation solution. The latter consisted of (in mM): EGTA 1, Pipes 30, Na2ATP 5.16, MgCl2 7.31, sodium creatine phosphate 10 and potassium gluconate 74.1. For contraction curves the buffer was supplemented with 160 U/ml calmodulin and 100 U/ml creatine phosphokinase. The concentration of free Ca2+ ions was calculated as described previously (53).
# arteries of KO mice = assay: Morphological analysis of arteries after chronic treatment; conditions: 20 days treatment
# From the text: A 129S7AB2.2 genomic BAC clone (bMQ-446B20; Sanger) was used to generate the targeting vector. Recombination in SW102 cell was employed to replace the miR-143 to miR-145 genomic region by a galK cassette (45) that was amplified by the primers flanking premiR-143 to pre-miR-145 ([…] GCggcgcgcctcagcactgtcctgctcctt; […] ACggcgcgcctgttgacaattaatcatcggca). The genomic sequence was inserted via gap repair into a pKO targeting vector containing a DTA expression cassette and 450 bp homology arms for BAC recombination resulting in a vector containing 6.5 kb of sequence 5′ of miR-143 and 5.5 kb 3′ of miR-145 from genomic sequence […] to […]. The AscI restriction sites flanking the galK cassette were used to replace the galK by a floxed IRESIacZ-NeoR cassette. […]
# Arteries were perfused using a PBS solution via the heart apex at 100 mmHg pressure for 2 min, followed by perfusion with 4% paraformaldehyde in PBS. […] Ultra-thin sections were stained with uranyl acetate and lead citrate, viewed and photographically recorded using a Philips CM 10 electron microscope. The phenotype of VSMC was determined ultrastructurally following criteria as previously reported (47). […] The phenotype of VSMC in each mouse was quantified in at least 300 cells per 3 arterial segments (minimum 100 μm) using consecutive transversal sections. […]
# [2] = test system: miR-143/145-deficient mice; assay: Hemodynamic measurements by aortic catheterization under isoflurane, acute ACE inhibition; conditions: miR-143/145 KO animals compared with WT, isoflurane anaesthesia, captopril via jugular vein
# Method: Aortic catheterization was performed using a 1.4 F pressure-volume catheter. Data were recorded and analyzed with Chart v5.4 as described before (51). Mice were anaesthetized with isoflurane (2 vol % in O2) and their body temperature was kept at 37° C. as monitored by a rectal probe. Captopril (30 mg/kg body weight, 50 μl) and angiotensin II (5 to 50000 ng/kg body weight, 50 μl) were applied via the left jugular vein. For measurements of conscious, unrestrained mice, hemodynamic parameters were recorded by telemetry (DSI, Transoma Medical, USA, TA11PA-C10 transmitters) after a recovery period from surgery of more than 7 days. Recordings were obtained every 2 minutes for 20 seconds at a sampling frequency of 1000 Hz and were analyzed for day (07:00-19:00) and nighttime (19:00-07:00) periods, respectively, to evaluate circadian variation in hemodynamics.
# [3] = test system: aortae of miR-143/145 KO mice; assay: Affymetrix GeneChip mRNA expression analysis of aortae after chronic captopril or losartan
# From the text: as §1
# Tissues were dissected from PBS perfused animals and total RNA was isolated using the Trizol method (Invitrogen). RNA quality was checked on the Agilent 2100 Bioanalyser using the RNA 6000 Nano Kit. For mRNA expression analysis the Affymetrix GeneChip Mouse Genome 430 2.0 Array was employed with the respective one-cycle target labelling protocol. Data were analysed by the RMA algorithm using the Affymetrix Expression Console. […] 507 probe sets were identified with p<0.05 and FC>1.5 or FC<0.666. For miRNA expression analysis 384 3′ C6 aminolinker DNA-oligonucleotides complementary to published miRNA (Sanger, miRBase) sequences were synthesised and spotted with eight replicates per array to Nexterion E slides. Probe labelling and hybridization followed the Agilent miRNA labelling protocol, but P-CTTTT-Alexa555 or P-CTTTTAlexa647 oligonucleotides (MWG-Biotech) were ligated to the miRNAs. Arrays were scanned and analysed with an Axon 4200B scanner and GenePix Pro 6.0. Normalisation and data analysis was performed using Acuity 4.0. For multiple tissue comparison, miRNA from tissues was labelled with the Alexa555 dye, miRNA from whole E15.5 embryos labelled with Alexa647 dye was used as a reference. Data were linear normalized to a log ratio of 1 for the ratio of medians of let-7a-g and let-7i signals. The log 2 ratio data were centered for the single miRNA expression signals (by subtracting the row mean from each value), log 2 ratio data are visualized. For Northern blot analysis 3 μg (aorta 1.5 μg) of total RNA were separated on a 15% Polyacrylamide-Urea gel (Invitrogen) and blotted on Hybond XL (Amersham). miR-145, miR-143 and U6 antisense oligonucleotides were labeled with γ-ATP and PNK (NEB) and purified using Micro Bio-Spin® 6 columns (Biorad). Hybridization was performed in Ultrahyb hybridization buffer (Ambion) at 30° C. over night. Blots were washed 2 times in 2×SSC/0.1% SDS at 25° C. (5 min) and at 42° C. (15 min). Signals were detected using a BAS-2500 imager (Fujifilm).
# [4] = KO femoral arteries, chronic captopril
# [5] = mutant (KO) femoral arteries, captopril treatment vs. KO untreated
# [6] = aorta, chronic oral treatment 20 days
smiles,measurement,setting,value
C[C@H](CS)C(=O)N1CCC[C@H]1C(=O)O [captopril],angiotensin II-induced contraction after ACE inhibition,[1]; [4],9 % of K+ contraction
same,maximal force of contraction generated by K+-induced depolarization,[1]; [4],No change; also recorded: did not improve
same,phenylephrine-effects after ACE inhibition,[1]; [4],46 % of the K+ contraction
same,Maximal angiotensin II-induced force of contraction,"[1]; captopril-treated WT vessels, femoral artery, 20 day oral treatment",3.4±0.6 mN
same,Maximal angiotensin II-induced force of contraction,"[1]; femoral arteries from miR-143/145 KO mice after captopril treatment, 20 days oral",0.30±0.05 mN
same,angiotensin II induced contractile responses,[1]; [5],significantly improved; also recorded: markedly improved
same,contractile response to phenylephrine,[1]; [5],improved responses; also recorded: markedly improved
same,significant morphological changes in arteries,arteries of KO mice,not observed
same,diastolic pressure after acute inhibition of ACE,[2],stronger decrease; also recorded: pronounced reduction
same,"FC Acta1 (1427735_a_at), treated miR-143/145 KO vs. WT",[3]; [6],0.87
same,"FC Arhgef17 (1433682_at), treated miR-143/145 KO vs. WT",[3]; [6],0.82
same,"FC Cald1 (1424768_at), treated miR-143/145 KO vs. WT",[3]; [6],1.09
same,"FC Camk2g (1423942_a_at), treated miR-143/145 KO vs. WT",[3]; [6],0.87
same,"FC Cap2 (1423222_at), treated miR-143/145 KO vs. WT",[3]; [6],0.77
same,"FC Clcn3 (1433486_at), treated miR-143/145 KO vs. WT",[3]; [6],1.09
same,"FC Efemp1 (1427183_at), treated miR-143/145 KO vs. WT",[3]; [6],1.22
same,"FC Itga3 (1455158_at), treated miR-143/145 KO vs. WT",[3]; [6],0.76
same,"FC Krt8 (1420647_a_at), treated miR-143/145 KO vs. WT",[3]; [6],1.09
same,"FC Mc2r (1422926_at), treated miR-143/145 KO vs. WT",[3]; [6],1.23
same,"FC Mylk (1425506_at), treated miR-143/145 KO vs. WT",[3]; [6],0.90
same,"FC Mylpf (1448371_at), treated miR-143/145 KO vs. WT",[3]; [6],0.77
same,"FC Myoc (1450468_at), treated miR-143/145 KO vs. WT",[3]; [6],0.99
same,"FC Neo1 (1440789_at), treated miR-143/145 KO vs. WT",[3]; [6],1.07
same,"FC Npr3 (1435184_at), treated miR-143/145 KO vs. WT",[3]; [6],1.00
same,"FC Pde3b (1433694_at), treated miR-143/145 KO vs. WT",[3]; [6],1.04
same,"FC Ppp2r1b (1419871_at), treated miR-143/145 KO vs. WT",[3]; [6],0.81
same,"FC Prkg1 (1449876_at), treated miR-143/145 KO vs. WT",[3]; [6],1.12
same,"FC Rock1 (1460729_at), treated miR-143/145 KO vs. WT",[3]; [6],0.99
same,"FC S100a8 (1419394_s_at), treated miR-143/145 KO vs. WT",[3]; [6],0.81
same,"FC S100a9 (1448756_at), treated miR-143/145 KO vs. WT",[3]; [6],0.78
same,"FC Serca1 (1419312_at), treated miR-143/145 KO vs. WT",[3]; [6],0.72
same,"FC Tnnc2 (1417464_at), treated miR-143/145 KO vs. WT",[3]; [6],1.13
same,"FC Unc5c (1449522_at), treated miR-143/145 KO vs. WT",[3]; [6],0.63
same,number of the 507 deregulated probe sets returned to normal (WT) levels,"[3]; mutant mice, 3 weeks (20 days) oral application, p > 0.05 vs. WT, n = 3",248
